Measured values from ChEMBL document CHEMBL3244140, “Folate antagonists. 12. Antimalarial and antibacterial effects of 2,4-diamino-6-[(aralkyl and alicyclid)thio-, sulfinyl-, and sulfonyl]quinazolines” (J Med Chem, 1978).
In brackets after ≈: the same amount, converted by molar mass. Activity calls are given as the source filed them. The calls are words filed in the database; no cut-off is given here.

Legend:
Plasmodium berghei [1] = test: Antiplasmodial activity against drug-sensitive Plasmodium berghei infected in mouse assessed as change in mean survival time at 640 mg/kg, sc administered as single dose 72 hrs post infection; assay type: functional; settings: route subcutaneous
Plasmodium berghei [2] = test: Antiplasmodial activity against drug-sensitive Plasmodium berghei infected in mouse assessed as change in mean survival time at 320 mg/kg, sc administered as single dose 72 hrs post infection measured 60 days postinfection; assay type: functional; settings: route subcutaneous
Plasmodium berghei [3] = test: Antiplasmodial activity against drug-sensitive Plasmodium berghei infected in mouse assessed as change in mean survival time at 80 mg/kg, sc administered as single dose 72 hrs post infection; assay type: functional; settings: route subcutaneous
Plasmodium berghei [4] = test: Antiplasmodial activity against drug-sensitive Plasmodium berghei infected in mouse assessed as change in mean survival time at 20 mg/kg, sc administered as single dose 72 hrs post infection; assay type: functional; settings: route subcutaneous
Plasmodium berghei [5] = test: Antiplasmodial activity against drug-sensitive Plasmodium berghei infected in mouse assessed as change in mean survival time at 160 mg/kg, sc administered as single dose 72 hrs post infection; assay type: functional; settings: route subcutaneous
Plasmodium berghei [6] = test: Antiplasmodial activity against drug-sensitive Plasmodium berghei infected in mouse assessed as change in mean survival time at 40 mg/kg, sc administered as single dose 72 hrs post infection; assay type: functional; settings: route subcutaneous
Staphylococcus aureus [7] = test: Antibacterial activity against drug-resistant Staphylococcus aureus S18713 assessed as growth inhibition by Gradient plate test; assay type: functional
Escherichia coli = test: Antibacterial activity against Escherichia coli Vogel by Gradient plate test; assay type: functional, organism-based
Pseudomonas aeruginosa = test: Antibacterial activity against Pseudomonas aeruginosa 28 by Gradient plate test; assay type: functional, organism-based
Shigella sonnei = test: Antibacterial activity against Shigella sonnei C-10 by Gradient plate test; assay type: functional, organism-based
Staphylococcus aureus [8] = test: Antibacterial activity against Staphylococcus aureus UC-76 assessed as growth inhibition by Gradient plate test; assay type: functional
Enterococcus faecalis = test: Antibacterial activity against Streptococcus faecalis MGH2 assessed as growth inhibition by Gradient plate test; assay type: functional
Plasmodium berghei [9] = test: Antiplasmodial activity against drug-sensitive Plasmodium berghei infected in mouse assessed as cure from infection at 640 mg/kg, sc administered as single dose 72 hrs post infection measured 60 days postinfection; assay type: functional, organism-based; set-up: dose 640 mg/kg
Plasmodium berghei [10] = test: Antiplasmodial activity against drug-sensitive Plasmodium berghei infected in mouse assessed as cure from infection at 160 mg/kg, sc administered as single dose 72 hrs post infection measured 60 days postinfection; assay type: functional, organism-based; set-up: dose 160 mg/kg
Mus musculus [11] = test: Toxicity in drug-sensitive Plasmodium berghei infected mouse at 320 mg/kg, sc administered as single dose 72 hrs post infection measured 2 to 5 days postinfection; assay type: organism-based; set-up: dose 320 mg/kg, route subcutaneous; settings: in vivo
Mus musculus [12] = test: Toxicity in drug-sensitive Plasmodium berghei infected mouse at 640 mg/kg, sc administered as single dose 72 hrs post infection […]; assay type: organism-based; set-up: dose 640 mg/kg, route subcutaneous; settings: in vivo
Plasmodium berghei [13] = test: Antiplasmodial activity against drug-sensitive Plasmodium berghei infected in mouse assessed as cure from infection at 320 mg/kg, sc administered as single dose 72 hrs post infection measured 60 days postinfection; assay type: functional, organism-based; set-up: dose 320 mg/kg

| SMILES | MSD (Plasmodium berghei [1]) | MSD (Plasmodium berghei [2]) | MSD (Plasmodium berghei [3]) | MSD (Plasmodium berghei [4]) | MSD (Plasmodium berghei [5]) | MSD (Plasmodium berghei [6]) | MIC (Staphylococcus aureus [7]) | Activity (Escherichia coli) | Activity (Pseudomonas aeruginosa) | Activity (Shigella sonnei) | MIC (Staphylococcus aureus [8]) | MIC (Enterococcus faecalis) | Activity (Plasmodium berghei [9]) | Activity (Plasmodium berghei [10]) | Activity (Mus musculus [11]) | Activity (Mus musculus [12]) | Activity (Plasmodium berghei [13]) |
| --- | --- | --- | --- | --- | --- | --- | --- | --- | --- | --- | --- | --- | --- | --- | --- | --- | --- |
| Nc1nc(N)c2cc(SCc3ccccc3)ccc2n1 | 10.7 days | 4.9 days | 0.9 days | 0.5 days | 1.1 days | 0.5 days | – | – | – | – | – | – | – | – | – | – | – |
| Nc1nc(N)c2c(Cl)c(S(=O)(=O)Cc3ccc(Cl)cc3)ccc2n1 | 0.1 days | – | – | – | 0.1 days | 0.1 days | 10 mg/L (≈ 26.1 µM) | inactive | inactive | inactive | 5 mg/L (≈ 13 µM) | < 0.25 mg/L | – | – | – | – | – |
| Nc1nc(N)c2cc(SC3CCCCC3)ccc2n1 | – | 12.9 days | 5.7 days | 0.7 days | 9.1 days | 2.5 days | 10 mg/L (≈ 36.4 µM) | inactive | inactive | inactive | < 0.25 mg/L | 10 mg/L (≈ 36.4 µM) | Active | – | – | – | – |
| Nc1nc(N)c2cc(SC34CC5CC(CC(C5)C3)C4)ccc2n1 | 10.7 days | 1.1 days | 0.3 days | 0.1 days | 0.3 days | 0.3 days | < 0.25 mg/L | inactive | inactive | inactive | < 0.25 mg/L | < 0.25 mg/L | – | – | – | – | – |
| Nc1nc(N)c2c(Cl)c([S+]([O-])Cc3ccc(Cl)cc3)ccc2n1 (stereo unspecified) | 0.3 days | – | – | – | 0.3 days | 0.1 days | > 25 mg/L | inactive | inactive | inactive | > 25 mg/L | < 0.25 mg/L | – | – | – | – | – |
| Nc1nc(N)c2cc(OCc3ccc(Cl)cc3)ccc2n1 | 13.3 days | 11.2 days | 3.6 days | 1.2 days | 7.2 days | 1.7 days | – | – | – | – | – | – | – | – | – | – | – |
| Nc1nc(N)c2cc(S(=O)(=O)Cc3ccc(Cl)cc3)ccc2n1 | 5.9 days | 0.9 days | 0.3 days | 0.1 days | 0.3 days | 0.1 days | > 25 mg/L | inactive | inactive | inactive | > 25 mg/L | > 25 mg/L | – | – | – | – | – |
| Nc1nc(N)c2cc(SCCc3ccccc3)ccc2n1 | – | 17.2 days | 0.9 days | 0.5 days | 4.5 days | 0.5 days | – | – | – | – | – | – | – | – | – | – | – |
| Nc1nc(N)c2cc(SCc3ccc(Cl)cc3)ccc2n1 | 17.3 days | 9.8 days | 2.6 days | 0.4 days | 4.2 days | 0.8 days | < 0.25 mg/L | inactive | inactive | inactive | < 0.25 mg/L | < 0.25 mg/L | – | – | – | – | – |
| Nc1nc(N)c2c(Cl)c(SCc3ccc(Cl)cc3)ccc2n1 | 7.9 days | 3.1 days | 1.1 days | 0.5 days | 1.7 days | 0.5 days | – | – | – | – | – | – | – | – | – | – | – |
| COc1cc(Cc2cnc(N)nc2N)cc(OC)c1OC [TRIMETHOPRIM] | – | – | – | – | – | – | < 0.25 mg/L | inactive | inactive | inactive | < 0.25 mg/L | < 0.25 mg/L | – | – | – | – | – |
| CC(Sc1ccc2nc(N)nc(N)c2c1)c1ccc(Cl)cc1 (stereo unspecified) | – | 17 days | 9.6 days | 3.7 days | 10.9 days | 5.7 days | 1 mg/L (≈ 3.02 µM) | inactive | inactive | inactive | < 0.25 mg/L | < 0.25 mg/L | Active | – | – | – | – |
| Nc1nc(N)c2cc([S+]([O-])Cc3ccc(Cl)cc3)ccc2n1 (stereo unspecified) | 5.9 days | 2.9 days | 0.7 days | 0.3 days | 0.9 days | 0.5 days | > 25 mg/L | inactive | inactive | inactive | 25 mg/L (≈ 75.1 µM) | > 25 mg/L | – | – | – | – | – |
| CC1(C)N=C(N)N=C(N)N1c1ccc(Cl)cc1.Cl [CHLORCYCLOGUANIL HYDROCHLORIDE] | – | – | 21.6 days | 7.9 days | – | 13.4 days | – | – | – | – | – | – | – | Active | Toxic | Toxic | – |
| CC(=O)O.Nc1nc(N)c2cc(NCc3ccc(Cl)c(Cl)c3)ccc2n1 | – | – | 12.9 days | 2.5 days | 9.9 days | 7.1 days | – | – | – | – | – | – | Active | – | – | – | Active |
